Consider two compounds from patent US8372421B2, “Inhibition of mitogen-activated protein kinases in cardiovascular disease” (New York University, priority 2004, dated 2013).

In assay [1] the test system is balloon-injured carotid arteries. The conditions noted are these: delivered pre- and post-operatively; effect relatively modest; cited from earlier work.
The next assay concerns ERK-1/2. The conditions noted are these: excised EJV immersed 20 minutes in 80 μmmoles/L UO126 before grafting; 3 hours post-grafting; relative to DMSO-pretreated EJVs. The procedure: (§1) Carotid artery bypass using reversed autologous external jugular vein (EJV) was performed on 29 purpose-bred mongrel dogs. Following skin incision, the EJV was exposed with a “no-touch” technique, and the side branches were clipped and divided. The dogs received heparin systemically (100 U/kg) and the ipsilateral common carotid artery was dissected free of the surrounding tissue. The EJV was ligated and excised. The lumen of the EJV was flushed with plasmalyte solution without distending the vein. A segment of the excised vein was removed and labeled (“control 1”). The EJV was reversed and grafted to the common carotid artery in an end-to-side fashion with 7-0 polypropylene suture, and the carotid artery was ligated and divided. See Saunders et al., J Thorac Cardiovasc Surg. 2004; 127:1276-1284.
(§2) Each EJV was grafted to a carotid artery. Autologous femoral vein was excised but not treated or grafted.

Another assay relates to PCNA expression. As to conditions: EJV pretreated with 80 μM UO126; 24 hours and 4 days post-grafting; relative to DMSO-pretreated EJVs. The procedure: as §1, §2
The next assay deals with medial cell apoptosis. The conditions noted are these: EJV pretreated with 80 μM UO126; 1 day and 4 days post-anastomosis. The procedure:
as §1, §2

A further assay relates to C reactive protein (CRP). The conditions noted are these: graft immersed in UO126 (80 μM/L) prior to grafting; 24 hours post-operatively. The procedure: as §1
(§3) Inflammation is a key component of a vessel's response to injury.
(§4) This experiment, which also used the canine model described in Example 1, investigated the levels of CRP and MPO cells in arterialized vein grafts immersed in a solution of UO126 (80 μM/L) (solubilized with DMSO and diluted in PBS) prior to grafting (i.e., pretreated grafts), arterialized vein grafts that were not pretreated, and contralateral ungrafted, un-pretreated external jugular veins.

In assay [2] the test system is myeloperoxidase-positive (MPO) cells. As to conditions: graft immersed in UO126 (80 μM/L) prior to grafting; 24 hours and 4 days post-operatively. The procedure: as §1, §3, §4
The test system of assay [3] is arterialized vein graft wall. As to conditions: EJV immersed 20 minutes in 80 μmoles/L UO126 before grafting; AVG harvested at 28 days; 1% cholesterol chow; DMSO controls 358.2+/−190.3; p=0.012. The procedure:
The experimental procedure followed in the canine model described in Examples 1, 2, and 3 was applied to white New Zealand rabbits fed a 1% cholesterol chow. Prior to grafting, the excised autologous EJVs were fully immersed for 20 minutes at room temperature in about 5 ml of a solution containing 80 μmoles/L of UO126 (solubilized with DMSO and diluted in PBS) or vehicle (DMSO, 0.8%) alone in PBS. Each EJV was grafted to a carotid artery. Autologous femoral vein was excised but not treated or grafted. The veins were fixed in formaldehyde, and sections stained with hematoxylin/eosin were used for the following analysis.

The subject of the next assay is ERK-1/2 activation. The conditions noted are these: cited from earlier work.

Turning to `COc1cccc(-c2cc(=O)c3ccccc3o2)c1N` [PD98059, 2-(2′-amino-3′-methoxyphenyl) oxanaphthalen-4-one], in assay [1], the ERK activation result was “inhibit” and the medial cell proliferation entry was “inhibit”.

Take `N#CC(=C(N)Sc1ccccc1N)C(C#N)=C(N)Sc1ccccc1N` [UO126, 1,4-diamino-2,3-dicyano-1,4-bis[2-aminophenylthio]butadiene]: the “ERK-1/2 activation (ratio of phosphorylated to total ERK-1/2)” value with ERK-1/2 was “significantly reduced”. For the same compound, the PCNA expression entry with PCNA expression is recorded as “markedly decreased”. In the assay with medial cell apoptosis, the “medial cell apoptosis (TUNEL)” value is “marked and sustained (up to 4 days) induction”. The “upregulation of CRP in arterialized vein grafts” value with C reactive protein (CRP) is recorded as “does not affect”. In addition, in assay [2], the “levels of MPO cells associated with arterialized vein grafts” value is on record as “significantly downregulated”. The “vein wall thickness (intima+media) to luminal circumference ratio (mean value+/−SD)” value in assay [3] was 288.8+/−109.5. In the assay with ERK-1/2 activation, the “potency as inhibitor of ERK-1/2 activation compared with PD098059” value is “more potent”.
